Results on six compounds are retold here after ChEMBL document CHEMBL1132033, “Stabilization of microtubules by Combretastatin D derivatives” (Bioorg Med Chem Lett, 1999).

In general, inhibition refers to the percentage by which the read-out fell short of the control. High values mean a response far below the control, low ones a response near the control. As usually defined, the IC50 is the concentration that inhibits the measured activity by half. Read a low IC50 as greater potency in that assay.

Each structure is given as a SMILES string.

The target in experiment [1] is Tubulin alpha chain (Sus scrofa) (UniProt P02550). The experiment is described as follows: Inhibitory activity against tubulin polymerization at 0.5 mM concentration. It is filed as functional.
Chain of Tubulin alpha chain (Sus scrofa) (P02550 whole entry, looked up): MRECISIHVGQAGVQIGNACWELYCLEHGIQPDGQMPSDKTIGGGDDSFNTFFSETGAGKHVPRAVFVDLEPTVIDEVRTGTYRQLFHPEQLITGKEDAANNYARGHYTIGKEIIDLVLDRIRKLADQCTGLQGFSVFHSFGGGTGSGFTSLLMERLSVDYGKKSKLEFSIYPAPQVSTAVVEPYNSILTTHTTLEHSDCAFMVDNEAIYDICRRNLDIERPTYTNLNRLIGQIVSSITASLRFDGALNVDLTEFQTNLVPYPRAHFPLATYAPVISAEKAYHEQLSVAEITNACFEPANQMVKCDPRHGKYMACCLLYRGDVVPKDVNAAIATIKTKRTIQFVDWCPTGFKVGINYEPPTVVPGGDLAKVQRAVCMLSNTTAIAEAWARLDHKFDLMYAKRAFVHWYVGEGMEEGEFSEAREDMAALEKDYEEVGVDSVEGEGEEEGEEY
Experiment [2] shares this target. The experiment is described as follows: Inhibitory activity against tubulin polymerization at 0.25 mM concentration. It is filed as functional.
The target is the same in experiment [3]. Put plainly: Inhibitory activity against tubulin polymerization at 2.0 mM concentration. It is filed as functional.
A further experiment has as its system 1A9. Put plainly: Inhibitory activity against Taxol resistant 1A9 cell lines. It is filed as functional, cell-based. The settings on record: Homo sapiens.
The test system of a further experiment is 1A9/ptx-22. Put plainly: Inhibitory activity against Taxol resistant PTX22 cell lines. The settings on record: Homo sapiens. It is filed as functional, cell-based.
The target in experiment [4] is Tubulin alpha chain (Sus scrofa) (UniProt P02550). The experiment is described as follows: Inhibitory activity against tubulin polymerization at 1.0 mM concentration. It is filed as functional.
In the next experiment the test system is 1A9/ptx-10. Put plainly: Inhibitory activity against Taxol resistant PTX10 cell lines. To be noted: Homo sapiens. In kind it is functional, cell-based.

As for `COc1ccc2cc1Oc1ccc(cc1)C1OC1COC(=O)CC2` (configuration not stated), the inhibition in experiment [1] worked out at 20%; in experiment [2], 0%; in experiment [3] it was 39%; in experiment [4], 27%. Further, the IC50 in the experiment with 1A9, in the experiment on 1A9/ptx-22 and in the experiment on 1A9/ptx-10 was > 2.5 µM each time.
Regarding `COc1ccc2cc1Oc1ccc(cc1)/C=C\COC(=O)CC2`, the inhibition in experiment [1] is 19%; in experiment [2], 16%; in experiment [3], 35%; in experiment [4], 27%. The IC50 in the experiment on 1A9, in the experiment on 1A9/ptx-22 and with 1A9/ptx-10 was > 2.5 µM throughout.
As for `COc1cc2c(c(OC)c1OC)-c1ccc(OC)c(=O)cc1[C@@H](NC(C)=O)CC2` [COLCHICINE], the inhibition is 3% in experiment [1], 4% in experiment [2], 0% in experiment [3] and 4% in experiment [4]. In addition, the IC50 with 1A9, in the experiment with 1A9/ptx-22 and in the experiment with 1A9/ptx-10 was > 2.5 µM in each case.
For `COc1ccc2cc1Oc1ccc(cc1)CC(O)COC(=O)CC2` (configuration not stated), the inhibition came out at 47% in experiment [1], 27% in experiment [2], 76% in experiment [3] and 62% in experiment [4]. Further, the IC50 with 1A9, in the experiment with 1A9/ptx-22 and in the experiment on 1A9/ptx-10 was > 2.5 µM throughout.
In the case of `COc1c(Br)cc2cc1Oc1ccc(cc1)CC(O)COC(=O)CC2` (configuration not stated), the inhibition in experiment [1] was 21%; in experiment [2], 3%; in experiment [3], 67%; in experiment [4], 39%. In addition, the IC50 in the experiment with 1A9, in the experiment with 1A9/ptx-22 and with 1A9/ptx-10 was > 2.5 µM throughout.
As for `COc1ccc2cc1Oc1ccc(cc1)CC(I)COC(=O)CC2` (configuration not stated), the inhibition is 28% in experiment [1], 5% in experiment [2], 54% in experiment [3] and 35% in experiment [4]. Also, the IC50 in the experiment on 1A9, in the experiment on 1A9/ptx-22 and in the experiment with 1A9/ptx-10 was > 2.5 µM in each case.
